Test results from US9694006B2, “Use of pyrroloquinoline compounds to kill clinically latent microorganisms” (HELPERBY THERAPEUTICS LIMITED, priority 2005, dated 2017).

Experiments:
[1] = test system: Staph. aureus stationary phase bacteria; assay: Bactericidal activity against stationary-phase cultures (CFU counts), Staph. aureus; assay type: cell-based, Staphylococcus aureus; conditions: 5 μg/mL of test compound
[2] = test system: E. coli persister bacteria; assay: Bactericidal activity against persistent bacteria (CFU counts), E. coli; conditions: 25 μg/mL of test compound

## COc1cc(OC)c2nc(C)c3c(c2c1)N(c1cccc(Oc2ccccc2)c1)CC3.O=C(O)C(F)(F)F [Example 1(a), 6,8-Dimethoxy-4-methyl-1-(3-phenoxyphenyl)-2,3-dihydro-1H-pyrrolo[3,2-c]quinoline trifluoroacetate]
[1]
  log kill: 3.55

## Cc1nc2ccc(Oc3ccccc3)cc2c2c1CCN2Cc1ccccc1 [Example 1(h), 1-Benzyl-4-methyl-8-phenoxy-2,3-dihydro-1H-pyrrolo[3,2-c]quinoline]
[2]
  log kill: 3.83
